Legend:
HCT-116 [1] = assay: cells; format: functional, cell-based; conditions: Homo sapiens, HCT-116, 24 h
Description: Antiproliferative activity against human HCT-116 cells incubated for 24 hrs by MTT assay

MDA-MB-231 [2] = assay: cells; format: functional, cell-based; conditions: Homo sapiens, MDA-MB-231, 24 h
Huh-7 [3] = assay: Antiproliferative activity against human Huh-7 cells incubated for 24 hrs by MTT assay; format: functional, cell-based; conditions: Huh-7, 24 h
PC-3 [4] = assay: Antiproliferative activity against human PC-3 cells incubated for 24 hrs by MTT assay; format: functional, cell-based; conditions: PC-3, 24 h
NCI-H2228 [5] = assay: Antiproliferative activity against human NCI-H2228 cells incubated for 24 hrs by MTT assay; format: functional, cell-based; conditions: NCI-H2228, 24 h
MCF7 [6] = assay: cells; format: functional, cell-based; conditions: Homo sapiens, MCF7, 24 h
Description: Antiproliferative activity against human MCF7 cells incubated for 24 hrs by MTT assay

Histone deacetylase 1 = Histone deacetylase 1 (Homo sapiens, UniProt Q13547); assay: Inhibition of HDAC1 (unknown origin)
Chain of Histone deacetylase 1 (Q13547 whole entry): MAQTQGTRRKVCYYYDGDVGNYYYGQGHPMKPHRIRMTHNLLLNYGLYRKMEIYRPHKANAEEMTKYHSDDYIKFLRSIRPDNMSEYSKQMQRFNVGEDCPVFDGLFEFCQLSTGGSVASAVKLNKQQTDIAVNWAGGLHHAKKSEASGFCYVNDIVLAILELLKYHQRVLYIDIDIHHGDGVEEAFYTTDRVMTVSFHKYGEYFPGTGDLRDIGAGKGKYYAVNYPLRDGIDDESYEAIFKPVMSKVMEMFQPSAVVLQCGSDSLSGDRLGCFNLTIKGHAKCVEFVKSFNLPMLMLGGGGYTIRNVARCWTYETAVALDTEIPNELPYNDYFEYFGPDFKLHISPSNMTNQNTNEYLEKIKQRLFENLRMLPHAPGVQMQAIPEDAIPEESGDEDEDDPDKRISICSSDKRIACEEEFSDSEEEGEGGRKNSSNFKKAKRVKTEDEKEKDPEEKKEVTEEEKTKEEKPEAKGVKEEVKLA

NCI-H2228 [7] = assay: Antiproliferative activity against human NCI-H2228 cells incubated for 24 hrs in presence of SAHA by MTT assay; format: functional, cell-based; conditions: NCI-H2228, 24 h
HCT-116 [8] = assay: cells; conditions: Homo sapiens, HCT-116, 24 h
Description: Antiproliferative activity against human HCT-116 cells incubated for 24 hrs in presence of SAHA by MTT assay

MDA-MB-231 [9] = assay: cells; conditions: Homo sapiens, MDA-MB-231, 24 h
Description: Antiproliferative activity against human MDA-MB-231 cells incubated for 24 hrs in presence of SAHA by MTT assay

Huh-7 [10] = assay: Antiproliferative activity against human Huh-7 cells incubated for 24 hrs in presence of SAHA by MTT assay; format: functional, cell-based; conditions: Huh-7, 24 h
MCF7 [11] = assay: cells; conditions: Homo sapiens, MCF7, 24 h
Description: Antiproliferative activity against human MCF7 cells incubated for 24 hrs in presence of SAHA by MTT assay

PC-3 [12] = assay: Antiproliferative activity against human PC-3 cells incubated for 24 hrs in presence of SAHA by MTT assay; format: functional, cell-based; conditions: PC-3, 24 h

Structure (SMILES) | IC50 (HCT-116 [1]) [µM] | IC50 (MDA-MB-231 [2]) [µM] | IC50 (Huh-7 [3]) [µM] | IC50 (PC-3 [4]) [µM] | IC50 (NCI-H2228 [5]) [µM] | IC50 (MCF7 [6]) [µM] | IC50 (Histone deacetylase 1) [µM] | IC50 (NCI-H2228 [7]) [µM] | IC50 (HCT-116 [8]) [µM] | IC50 (MDA-MB-231 [9]) [µM] | IC50 (Huh-7 [10]) [µM] | IC50 (MCF7 [11]) [µM] | IC50 (PC-3 [12]) [µM]
O=C(CCCCCCCn1c2cc3c(cc2c2ncc4ccccc4c21)OCO3)NO | 2.68 | 2.22 | 6.59 | 2.5 | 4.6 | > 8 | < 0.002 | – | – | – | – | – | –
CCCNNC(=O)c1ccc(Cn2c3cc4c(cc3c3[nH]c(=O)c5ccccc5c32)OCO4)cc1 | 1.5 | 4.45 | 6.28 | 1.53 | 2.17 | 1.97 | 1.09 | – | – | – | – | – | –
CCCNNC(=O)CCCCCCn1c2cc3c(cc2c2ncc4ccccc4c21)OCO3 | > 8 | > 8 | > 8 | > 8 | > 8 | > 8 | 0.13 | – | – | – | – | – | –
COc1cc([C@@H]2c3cc4c(cc3[C@@H](O[C@@H]3O[C@@H]5CO[C@@H](C)O[C@H]5[C@H](O)[C@H]3O)[C@H]3COC(=O)[C@H]23)OCO4)cc(OC)c1O [ETOPOSIDE] | – | 2.87 | – | – | – | – | – | 0.84 | 0.95 | 1.01 | 0.81 | 0.64 | 0.65

The remaining lines, values ahead:

IC50 (HCT-116 [1]) [µM] | IC50 (MDA-MB-231 [2]) [µM] | IC50 (Huh-7 [3]) [µM] | IC50 (PC-3 [4]) [µM] | IC50 (NCI-H2228 [5]) [µM] | IC50 (MCF7 [6]) [µM] | IC50 (Histone deacetylase 1) [µM] | IC50 (NCI-H2228 [7]) [µM] | IC50 (HCT-116 [8]) [µM] | IC50 (MDA-MB-231 [9]) [µM] | IC50 (Huh-7 [10]) [µM] | IC50 (MCF7 [11]) [µM] | IC50 (PC-3 [12]) [µM] | Structure (SMILES)
3.52 | 4.33 | 6.49 | 3.24 | 2.17 | 4.11 | 3.32 | – | – | – | – | – | – | CCCCNNC(=O)CCCCn1c2cc3c(cc2c2[nH]c(=O)c4ccccc4c21)OCO3
3.19 | > 8 | 7.41 | 3.56 | 2.39 | 4.08 | 1.65 | – | – | – | – | – | – | CCNNC(=O)CCCCn1c2cc3c(cc2c2[nH]c(=O)c4ccccc4c21)OCO3
> 8 | > 8 | > 8 | > 8 | > 8 | > 8 | 1.72 | – | – | – | – | – | – | CCCNNC(=O)CCCCCCCn1c2cc3c(cc2c2[nH]c(=O)c4ccccc4c21)OCO3
1.31 | 2.62 | 2.74 | 0.93 | 1.17 | 1.27 | 0.64 | – | – | – | – | – | – | CCCNNC(=O)CCCCn1c2cc3c(cc2c2[nH]c(=O)c4ccccc4c21)OCO3
2.88 | 5.91 | > 8 | 4.6 | 2.84 | > 8 | 0.5 | – | – | – | – | – | – | CCCNNC(=O)CCCCCn1c2cc3c(cc2c2[nH]c(=O)c4ccccc4c21)OCO3

Reference: ChEMBL document CHEMBL6096629, “Indolo[3,2-c]isoquinoline Hydroxamic Acid Derivatives as Novel Orally Topoisomerase-Histone Deacetylase Dual Inhibitors for NSCLC Therapy” (J Med Chem, 2025)
